Test results taken from patent US7994173B2, “2-piperazin-1-yl-3H-imidazo[4,5-b]pyridine derivatives” (Janssen Pharmaceutica N.V., priority 2007, dated 2011).
Counter-ions that a name gives are not always drawn.

Key:
[1] = test system: fundus of the stomach (gastric tone); experiment: Gastric tone measured by an electronic barostat in conscious dogs; format: in vivo, dog (female beagle); settings: for Maximum change in volume (Table C-2): I.D.
[2] = test system: fundus of the stomach (gastric tone); experiment: as above; format: in vivo, dog (female beagle); settings: for Maximum change in volume (mean): relaxation of the fundus, 1 hour after I.D. administration, 0.63 mg/kg
Protocol: Gastric tone cannot be measured by manometric methods. Therefore an electronic barostat was used. This allows the study of the physiological pattern and regulation of gastric tone in conscious dogs and the influence of test-compounds on this tone. The barostat consists of an air injection system which is connected by a double-lumen 14-French polyvinyl tube to an ultrathin flaccid polyethylene bag (maximal volume: ±700 ml). Variations in gastric tone were measured by recording changes in the volume of air within an intragastric bag, maintained at a constant pressure. The barostat maintains a constant pressure (preselected) within a flaccid air-filled bag introduced into the stomach, changing the volume of air within the bag by an electronic feedback system. Thus, the barostat measures gastric motor activity (contraction or relaxation) as changes in intragastric volume (decrease or increase resp.) at a constant intragastric pressure. The barostat consists of a strain gauge linked by an electronic relay to an air injection-aspiration system. Both the strain gauge and the injection system are connected by means of double-lumen polyvinyl tube to an ultrathin polyethylene bag. A dial in the barostat allows selection of the pressure level to be maintained within the intragastric bag. Female beagle dogs, weighing 7-17 kg, were trained to stand quietly in Pavlov frames. They were implanted with a gastric cannula under general anaesthesia and aseptic precautions. After a median laparotomy, an incision was made through the gastric wall in longitudinal direction between the greater and the lesser curve, 2 cm above the nerves of Latarjet. The cannula was secured to the gastric wall by means of a double purse string suture and brought out via a stub wound at the left quadrant of the hypochondrium. Dogs were allowed a recovery period of two weeks. At the beginning of the experiment, the cannula was opened in order to remove any gastric juice or food remnants. If necessary, the stomach was cleansed with 40 to 50 ml lukewarm water. The ultrathin bag of the barostat was positioned into the fundus of the stomach through the gastric cannula. In order to ensure easy unfolding of the intragastric bag during the experiment, a volume of 150-200 ml was injected into the bag by raising the pressure to maximally 14 mm Hg (about 1.87 kPa) very briefly. This procedure was repeated twice. After a stabilization period of 60 minutes at an intragastric pressure of 6 mmHg (about 0.81 kPa), the test compound was administered subcutaneously, or intraduodenally, at 2 mmHg (0.27 kPa). […] Table C-1 summarizes the mean maximal change in volume (in ml) on relaxation of the fundus, 1 hour after I.D. administration of the test compound (0.63 mg/kg).

SMILES	melting point	Maximum change in volume (mean) [2]	other results
Cn1c(N2CCNCC2)nc2cccnc21	136 °C		
Cn1c(N2CCN(Cc3cccnc3)CC2)nc2cccnc21 (as salt: HCl) (hydrate or solvate) [Co. No. 3]	182 °C		
Cn1c(C2CCCN(Cc3ccccc3)CC2)nc2cccnc21 (centres unmarked) [(72) of WO-01/46189, reference compound]			Maximum change in volume (Table C-2) ([1]; dose 0.16 mg/kg): 45 mL
CN(C)c1ccnc2c1nc(N1CCN(Cc3ccccc3)CC1)n2C [Co. No. 9]	128 °C		
Cn1c(N2CCN(Cc3ccc4c(c3)OCO4)CC2)nc2cccnc21 [Co. No. 10]	114 °C		
Cn1c(N2CCN(Cc3ccccc3)CC2)nc2cccnc21 [Co. No. 11]	98 °C		
CCCc1nc2c(cc1C)nc(N1CCN(Cc3ccccc3)CC1)n2C [compound 1]		237 mL	
Cn1c(N2CCN(Cc3cccnc3)CC2)nc2cccnc21 [compound 3]		154 mL	
CN(C)c1ccnc2c1nc(N1CCN(Cc3ccccc3)CC1)n2C [compound 9]		185 mL	
Cn1c(N2CCN(Cc3ccc4c(c3)OCO4)CC2)nc2cccnc21 [compound 10]		251 mL	
Cn1c(N2CCN(Cc3ccccc3)CC2)nc2cccnc21 [compound 11]		220 mL	Maximum change in volume (Table C-2) ([1]; dose 0.0025 mg/kg): 83 mL; Maximum change in volume (Table C-2) ([1]; dose 0.01 mg/kg): 157 mL; Maximum change in volume (Table C-2) ([1]; dose 0.04 mg/kg): 146 mL; Maximum change in volume (Table C-2) ([1]; dose 0.16 mg/kg): 180 mL; Maximum change in volume (Table C-2) ([2]; I.D., dose 0.63 mg/kg): 220 mL
Cn1c(N2CCNCC2)nc2cccnc21 [compound 14]			Maximum change in volume (mean) ([1]; relaxation of the fundus, 1 hour after I.D. administration, administered at 0.16 mg/kg (footnote *)): 154.6 mL
